Molecular target: BRIL-δOR(ΔN/ΔC) (Sf9) (Homo sapiens, UniProt P41143, P37S)
Type: binding

Sequence of BRIL-δOR(ΔN/ΔC) (Sf9) (P41143 36-338 P37S): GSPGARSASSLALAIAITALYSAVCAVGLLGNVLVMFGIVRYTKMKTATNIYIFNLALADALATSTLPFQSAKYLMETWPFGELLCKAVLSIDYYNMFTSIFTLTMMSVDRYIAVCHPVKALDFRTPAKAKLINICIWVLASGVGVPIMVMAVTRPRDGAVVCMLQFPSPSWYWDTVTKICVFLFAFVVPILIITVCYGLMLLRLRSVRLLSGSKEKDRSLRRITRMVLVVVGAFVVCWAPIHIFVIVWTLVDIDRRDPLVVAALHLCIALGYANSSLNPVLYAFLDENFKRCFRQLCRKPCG

In the case of `[Na+]` [sodium], the “Hill Coefficient” value is reported as 0.79 ± 0.02, the “Na+ pKB ± SEM” value is reported as 1.79 ± 0.11 and the “pα ± SEM” value is reported as 0.86 ± 0.05. It also gave a α of 0.138 and a Kb (read-out: Na+ KB) of 15.9 mM.

Source: PMC3931418 (Nature, 2014)
